In PubChem BioAssay (NCI):
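Values below derive from 48-hour exposures of cells grown in 96-well plates, with endpoints linearly interpolated between the two concentrations bracketing the appropriate inhibition level. TGI is the concentration that stops growth completely.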

Tests used:
Experiment in all cases: NCI anticancer screen, dose series, 48 h
786-0 renal = tested on: 786-0 renal
A498 renal = tested on: A498 renal
A549 NSCLC = tested on: A549 NSCLC
ACHN renal = tested on: ACHN renal
CAKI-1 renal = tested on: CAKI-1 renal
CCRF-CEM leukemia = tested on: CCRF-CEM leukemia
COLO 205 colon = tested on: COLO 205 colon
DU-145 prostate = tested on: DU-145 prostate
EKVX NSCLC = tested on: EKVX NSCLC
HCT-116 colon = tested on: HCT-116 colon
HCT-15 colon = tested on: HCT-15 colon
HL-60(TB) leukemia = tested on: HL-60(TB) leukemia
HOP-92 NSCLC = tested on: HOP-92 NSCLC
HS 578T breast = tested on: HS 578T breast
HT29 colon = tested on: HT29 colon
IGROV1 ovarian = tested on: IGROV1 ovarian
K-562 leukemia = tested on: K-562 leukemia
KM12 colon = tested on: KM12 colon
LOX IMVI melanoma = tested on: LOX IMVI melanoma
M14 melanoma = tested on: M14 melanoma
MALME-3M melanoma = tested on: MALME-3M melanoma
MDA-MB-231 breast = tested on: MDA-MB-231 breast
MDA-MB-435 = tested on: MDA-MB-435
MDA-N = tested on: MDA-N
MOLT-4 leukemia = tested on: MOLT-4 leukemia
NCI-H226 lung = tested on: NCI-H226 lung
NCI-H23 lung = tested on: NCI-H23 lung
NCI-H522 lung = tested on: NCI-H522 lung
NCI/ADR-RES ovarian = tested on: NCI/ADR-RES ovarian
OVCAR-4 ovarian = tested on: OVCAR-4 ovarian
OVCAR-5 ovarian = tested on: OVCAR-5 ovarian
OVCAR-8 ovarian = tested on: OVCAR-8 ovarian
RPMI-8226 leukemia = tested on: RPMI-8226 leukemia
RXF 393 renal = tested on: RXF 393 renal
SF-268 CNS = tested on: SF-268 CNS
SF-295 CNS = tested on: SF-295 CNS
SF-539 CNS = tested on: SF-539 CNS
SK-MEL-28 melanoma = tested on: SK-MEL-28 melanoma
SK-MEL-5 melanoma = tested on: SK-MEL-5 melanoma
SK-OV-3 ovarian = tested on: SK-OV-3 ovarian
SN12C renal = tested on: SN12C renal
SNB-19 CNS = tested on: SNB-19 CNS
SNB-75 CNS = tested on: SNB-75 CNS
SR leukemia = tested on: SR leukemia
SW-620 colon = tested on: SW-620 colon
T-47D breast = tested on: T-47D breast
TK-10 renal = tested on: TK-10 renal
U251 CNS = tested on: U251 CNS
UACC-257 melanoma = tested on: UACC-257 melanoma
UO-31 renal = tested on: UO-31 renal

Measured: TGI

Nc1c(N2CCCCC2)c(=O)nc2[nH]/c(=C\c3ccco3)c(=O)n12
> 100 µM: all assays above
